# Experimental data as given in PubChem BioAssay AID212 (DTP/NCI, 2004).
# Several values for one entry are separate records, joined by “and”; a condition that tells them apart may be missing. Equal entries are not always repeated. Results filed as inconclusive are left out.
# Tested on: BDF1 mice, colon carcinoma 38 sc, T/C %
# Experiment: NCI In Vivo Anticancer Drug Screen. Data for tumor model Colon Carcinoma 38 (subcutaneous) in B6D2F1 (BDF1) mice
# Settings: endpoint: median tumor weight (est.), higher = larger tumour
# Outline: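 Mice with transplanted tumors are treated with compound or vehicle. Survival or tumor size is then measured in both groups. The ratio of treated to control gives the reported figure.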
# [1] = dose: 200.0 mg/kg/injection, schedule: Q07DX002 (ip), vehicle: saline
# [2] = dose: 400.0 mg/kg/injection, schedule: Q07DX002 (ip), vehicle: saline
# [3] = dose: 12.5 mg/kg/injection, schedule: Q07DX002 (ip), vehicle: saline with Tween-80
# [4] = dose: 25.0 mg/kg/injection, schedule: Q07DX002 (ip), vehicle: saline with Tween-80
# [5] = dose: 100.0 mg/kg/injection, schedule: Q07DX002 (ip), vehicle: saline with Tween-80
# [6] = dose: 200.0 mg/kg/injection, schedule: Q07DX002 (ip), vehicle: saline with Tween-80
# [7] = dose: 25.0 mg/kg/injection, schedule: Q07DX002 (ip), vehicle: saline
# [8] = dose: 50.0 mg/kg/injection, schedule: Q07DX002 (ip), vehicle: saline
# [9] = dose: 100.0 mg/kg/injection, schedule: Q07DX002 (ip), vehicle: saline
# [10] = dose: 3.12 mg/kg/injection, schedule: Q07DX002 (ip), vehicle: saline with Tween-80
# [11] = dose: 6.25 mg/kg/injection, schedule: Q07DX002 (ip), vehicle: saline with Tween-80
# [12] = dose: 50.0 mg/kg/injection, schedule: Q07DX002 (ip), vehicle: saline with Tween-80
compound,measurement,setting,value
Nc1ncnc2c1ncn2C1OC(COP(=O)(O)O)C(O)C1O (stereo not given),T/C,"dose: 12.5 mg/kg/injection, schedule: Q07DX003 (ip), vehicle: water",79 % of control
same,T/C,"dose: 25.0 mg/kg/injection, schedule: Q07DX003 (ip), vehicle: water",70 % of control
same,T/C,"dose: 50.0 mg/kg/injection, schedule: Q07DX003 (ip), vehicle: water",60 % of control
same,T/C,"dose: 80.0 mg/kg/injection, schedule: Q07DX002 (ip), vehicle: water",81 % of control
same,T/C,"dose: 100.0 mg/kg/injection, schedule: Q07DX003 (ip), vehicle: water",95 % of control
same,T/C,"dose: 160.0 mg/kg/injection, schedule: Q07DX002 (ip), vehicle: water",70 % of control
same,T/C,[1],94 % of control
same,T/C,"dose: 200.0 mg/kg/injection, schedule: Q07DX003 (ip), vehicle: water",118 % of control
same,T/C,"dose: 320.0 mg/kg/injection, schedule: Q07DX002 (ip), vehicle: water",80 % of control
same,T/C,[2],89 % of control
same,T/C,"dose: 400.0 mg/kg/injection, schedule: Q07DX003 (ip), vehicle: water",56 % of control
same,T/C,"dose: 640.0 mg/kg/injection, schedule: Q07DX002 (ip), vehicle: water",86 % of control
same,T/C,"dose: 1600.0 mg/kg/injection, schedule: Q07DX002 (ip), vehicle: saline",77 % of control
same,T/C,"dose: 3200.0 mg/kg/injection, schedule: Q07DX002 (ip), vehicle: saline",50 % of control
O=C1CN(Cc2ccc3c(c2)OCO3)NO1,T/C,[3],76 % of control and 89 % of control
same,T/C,[4],81 % of control and 84 % of control
COc1cc2cc[n+](C)c(Cc3ccccc3)c2cc1OC,T/C,"dose: 12.5 mg/kg/injection, schedule: Q07DX003 (ip), vehicle: saline",113 % of control
same,T/C,"dose: 25.0 mg/kg/injection, schedule: Q07DX003 (ip), vehicle: saline",84 % of control
same,T/C,"dose: 50.0 mg/kg/injection, schedule: Q07DX003 (ip), vehicle: saline",80 % of control
C[C@]12CC[C@H]3[C@@H](CCC4=C[C@@H](OC5OCC(OC6OC(CO)C(O)C(O)C6O)C(O)C5O)CC[C@@]43C=O)[C@@]1(O)CCC2C1=CC(=O)OC1 (stereo not given in full),T/C,"dose: 0.31 mg/kg/injection, schedule: Q07DX003 (ip), vehicle: Klucel (hydroxypropylcellulose) (HPC)",106 % of control
same,T/C,"dose: 1.25 mg/kg/injection, schedule: Q07DX003 (ip), vehicle: Klucel (hydroxypropylcellulose) (HPC)",53 % of control
same,T/C,"dose: 2.5 mg/kg/injection, schedule: Q07DX003 (ip), vehicle: Klucel (hydroxypropylcellulose) (HPC)",102 % of control
same,T/C,"dose: 5.0 mg/kg/injection, schedule: Q07DX003 (ip), vehicle: Klucel (hydroxypropylcellulose) (HPC)",105 % of control
same,T/C,"dose: 10.0 mg/kg/injection, schedule: Q07DX003 (ip), vehicle: Klucel (hydroxypropylcellulose) (HPC)",95 % of control
CC(=Nc1ccccc1)C1=C(O)C(Cc2ccccc2)NC1=O (stereo not given),T/C,[3],86 % of control and 105 % of control
same,T/C,[5],45 % of control and 50 % of control
same,T/C,[6],70 % of control and 82 % of control
CC1(C)CC(=O)C(CSC(=O)c2ccccc2)C(=O)C1,T/C,"dose: 12.5 mg/kg/injection, schedule: Q07DX002 (ip), vehicle: Klucel (hydroxypropylcellulose) (HPC)",120 % of control and 104 % of control
same,T/C,"dose: 25.0 mg/kg/injection, schedule: Q07DX002 (ip), vehicle: Klucel (hydroxypropylcellulose) (HPC)",113 % of control and 104 % of control
same,T/C,"dose: 100.0 mg/kg/injection, schedule: Q07DX002 (ip), vehicle: Klucel (hydroxypropylcellulose) (HPC)",88 % of control
NC(=O)NO,T/C,[7],99 % of control
same,T/C,[8],69 % of control
same,T/C,[9],99 % of control
same,T/C,"dose: 100.0 mg/kg/injection, schedule: Q07DX003 (ip), vehicle: saline",152 % of control
same,T/C,[1],78 % of control
same,T/C,"dose: 200.0 mg/kg/injection, schedule: Q07DX003 (ip), vehicle: saline",43 % of control and 60 % of control
same,T/C,[2],88 % of control
same,T/C,"dose: 800.0 mg/kg/injection, schedule: Q07DX003 (ip), vehicle: saline",39 % of control
C=C1C(C2(C)C(OC(C)=O)CC(=O)OC(C)(COC(C)=O)C2CC(=O)OC)C(OC=O)C(OC(=O)C(O)C(C)CC)C2(C)C(c3ccoc3)CC(=O)C12O (stereo not given),T/C,"dose: 3.0 mg/kg/injection, schedule: Q07DX002 (ip), vehicle: Klucel (hydroxypropylcellulose) (HPC)",64 % of control
same,T/C,"dose: 6.0 mg/kg/injection, schedule: Q07DX002 (ip), vehicle: Klucel (hydroxypropylcellulose) (HPC)",68 % of control
same,T/C,"dose: 12.0 mg/kg/injection, schedule: Q07DX002 (ip), vehicle: Klucel (hydroxypropylcellulose) (HPC)",77 % of control
same,T/C,"dose: 24.0 mg/kg/injection, schedule: Q07DX002 (ip), vehicle: Klucel (hydroxypropylcellulose) (HPC)",90 % of control
same,T/C,"dose: 48.0 mg/kg/injection, schedule: Q07DX002 (ip), vehicle: Klucel (hydroxypropylcellulose) (HPC)",61 % of control
CO[C@@H]1[C@H](O)CC[C@]2(CO2)[C@H]1[C@@]1(C)O[C@@H]1CC=C(C)C,T/C,[10],46 % of control and 55 % of control
same,T/C,[11],50 % of control and 61 % of control
same,T/C,[12],63 % of control and 68 % of control and 71 % of control
same,T/C,[6],92 % of control
Nc1nc(N)c2c(Cl)c(CNc3ccc(Cl)c(Cl)c3)ccc2n1,T/C,[3],73 % of control and 82 % of control and 88 % of control
same,T/C,[5],5 % of control and 19 % of control
BrC[P+](CBr)(CBr)CBr,T/C,[10],48 % of control
same,T/C,[11],73 % of control
same,T/C,[12],82 % of control
same,T/C,[5],75 % of control and 77 % of control
CCC(=O)O[C@H]1CC[C@H]2[C@@H]3CCC4=CC(=O)CC[C@]4(C)[C@H]3CC[C@]12C,T/C,"dose: 20.0 mg/kg/injection, schedule: Q07DX002 (ip), vehicle: Klucel (hydroxypropylcellulose) (HPC)",72 % of control
same,T/C,"dose: 40.0 mg/kg/injection, schedule: Q07DX002 (ip), vehicle: Klucel (hydroxypropylcellulose) (HPC)",71 % of control and 81 % of control
same,T/C,"dose: 40.0 mg/kg/injection, schedule: Q07DX002 (ip), vehicle: suspension in saline",60 % of control
same,T/C,"dose: 80.0 mg/kg/injection, schedule: Q07DX002 (ip), vehicle: suspension in saline",93 % of control
same,T/C,"dose: 160.0 mg/kg/injection, schedule: Q07DX002 (ip), vehicle: suspension in saline",86 % of control
same,T/C,"dose: 320.0 mg/kg/injection, schedule: Q07DX002 (ip), vehicle: suspension in saline",99 % of control
same,T/C,"dose: 640.0 mg/kg/injection, schedule: Q07DX002 (ip), vehicle: Klucel (hydroxypropylcellulose) (HPC)",89 % of control and 100 % of control and 101 % of control
same,T/C,"dose: 640.0 mg/kg/injection, schedule: Q07DX002 (ip), vehicle: suspension in saline",86 % of control
OCC1OC(n2cnc3c2NC=NC[C@H]3O)CC1O (stereo not given in full),T/C,"dose: 0.63 mg/kg/injection, schedule: Q07DX002 (ip), vehicle: saline",70 % of control
same,T/C,"dose: 1.25 mg/kg/injection, schedule: Q07DX002 (ip), vehicle: saline",83 % of control
same,T/C,"dose: 2.0 mg/kg/injection, schedule: Q07DX002 (ip), vehicle: saline",68 % of control
same,T/C,"dose: 2.5 mg/kg/injection, schedule: Q07DX002 (ip), vehicle: saline",43 % of control
same,T/C,"dose: 5.0 mg/kg/injection, schedule: Q07DX002 (ip), vehicle: saline",90 % of control
same,T/C,"dose: 8.0 mg/kg/injection, schedule: Q07DX002 (ip), vehicle: saline",67 % of control
same,T/C,"dose: 10.0 mg/kg/injection, schedule: Q07DX002 (ip), vehicle: saline",45 % of control
same,T/C,"dose: 16.0 mg/kg/injection, schedule: Q07DX002 (ip), vehicle: saline",74 % of control
C=C(OP(=O)(OC)OC)Sc1ccccc1C,T/C,"dose: 0.18 mg/kg/injection, schedule: Q07DX002 (ip), vehicle: Klucel (hydroxypropylcellulose) (HPC)",112 % of control
same,T/C,"dose: 0.37 mg/kg/injection, schedule: Q07DX002 (ip), vehicle: Klucel (hydroxypropylcellulose) (HPC)",59 % of control
same,T/C,"dose: 0.75 mg/kg/injection, schedule: Q07DX002 (ip), vehicle: Klucel (hydroxypropylcellulose) (HPC)",101 % of control
same,T/C,"dose: 1.5 mg/kg/injection, schedule: Q07DX002 (ip), vehicle: Klucel (hydroxypropylcellulose) (HPC)",100 % of control
same,T/C,"dose: 1.56 mg/kg/injection, schedule: Q07DX002 (ip), vehicle: Klucel (hydroxypropylcellulose) (HPC)",122 % of control
CC(Cc1ccc(O)c(O)c1)C(C)Cc1ccc(O)c(O)c1 (stereo not given),T/C,[7],100 % of control
same,T/C,[8],83 % of control
same,T/C,[9],94 % of control
same,T/C,"dose: 800.0 mg/kg/injection, schedule: Q07DX002 (ip), vehicle: saline",90 % of control
CCCCOCN(COCCCC)C(C)Cc1ccccc1 (stereo not given),T/C,[4],85 % of control and 106 % of control
same,T/C,[12],120 % of control and 99 % of control
